# Test results published in patent US11098052B2, “4-azapodophylotoxins compounds” (Arizona Board of Regents on behalf of Arizona State …, priority 2016, dated 2021).
# Where two headings read alike, the source gives them in different places.
# Experiments:
# [1] = test system: P388 murine lymphocytic leukemia cell line; conditions: footnote c: See Ref 25; cited from earlier work
# NCI-H460 (lung) = test: Human cancer cell growth inhibition, sulforhodamine B assay, NCI-H460; assay type: cell-based; conditions: read-out: Growth Inhibition of Human Cancer Cell Lines (GI50), NCI-H460
# Protocol: (§1) Cancer Cell Line Procedures. The human cancer cell growth inhibition data were determined using the standard sulforhodamine B assay of the US National Cancer Institute as previously described.^35 In short, cells in a 5% fetal bovine serum/RPMI1640 medium were inoculated in 96-well plates and incubated for 24 h. Next, serial dilutions of the samples were added. After 48 h, the plates were fixed with trichloroacetic acid, stained with sulforhodamine B, and read with an automated microplate reader. A growth inhibition of 50% (GI50 or the drug concentration causing a 50% reduction in the net protein increase) was determined from optical density data employing Immunosoft® software.
# BXPC-3 (pancreas) = test: Human cancer cell growth inhibition, sulforhodamine B assay, BXPC-3; assay type: cell-based; conditions: read-out: Growth Inhibition of Human Cancer Cell Lines (GI50), BXPC-3
# Protocol: as §1
# KM20L2 (colon) = test: Human cancer cell growth inhibition, sulforhodamine B assay, KM20L2; assay type: cell-based; conditions: read-out: Growth Inhibition of Human Cancer Cell Lines (GI50), KM20L2
# Protocol: as §1
# MCF-7 (breast) = test: Human cancer cell growth inhibition, sulforhodamine B assay, MCF-7; assay type: cell-based; conditions: read-out: Growth Inhibition of Human Cancer Cell Lines (GI50), MCF-7
# Protocol: as §1
# SF-268 (CNS) = test: Human cancer cell growth inhibition, sulforhodamine B assay, SF-268; assay type: cell-based; conditions: read-out: Growth Inhibition of Human Cancer Cell Lines (GI50), SF-268
# Protocol: as §1
# DU-145 (prostate) = test: Human cancer cell growth inhibition, sulforhodamine B assay, DU-145; assay type: cell-based; conditions: read-out: Growth Inhibition of Human Cancer Cell Lines (GI50), DU-145
# Protocol: as §1
# [2] = test system: P388 murine lymphocytic leukemia cell line; test: Murine P388 lymphocytic leukemia inhibitory activity; assay type: cell-based; conditions: Mus musculus
# [3] = P388, read-out: Murine P388 Lymphocytic Leukemia Inhibitory Activity (ED50)
SMILES,melting point,Murine P388 Lymphocytic Leukemia Inhibitory Activity (ED50) [1] [µg/mL],"GI50 (NCI-H460 (lung); NCI-H460, 48 h) [µg/mL]","GI50 (BXPC-3 (pancreas); BXPC-3, 48 h) [µg/mL]","GI50 (KM20L2 (colon); KM-20L2, 48 h) [µg/mL]","GI50 (MCF-7 (breast); MCF7, 48 h) [µg/mL]","GI50 (SF-268 (CNS); SF-268, 48 h) [µg/mL]","GI50 (DU-145 (prostate); DU-145, 48 h) [µg/mL]","IC50 [2, 3] [µg/mL]","GI50 (NCI-H460 (lung); NCI-H460 lung, 48 h, sulforhodamine B) [µg/mL]","GI50 (BXPC-3 (pancreas); BXPC-3 pancreas, 48 h, sulforhodamine B) [µg/mL]","GI50 (KM20L2 (colon); KM-20L2, KM20L2 colon, 48 h, sulforhodamine B) [µg/mL]","GI50 (MCF-7 (breast); MCF7, MCF-7 breast, 48 h, sulforhodamine B) [µg/mL]","GI50 (SF-268 (CNS); SF-268 CNS, 48 h, sulforhodamine B) [µg/mL]","GI50 (DU-145 (prostate); DU-145 prostate, 48 h, sulforhodamine B) [µg/mL]","IC50 ([2]; P388 cell line, read-out: Murine P388 Lymphocytic Leukemia Inhibitory Activity (ED50)) [µg/mL]"
"COc1cc(C2C3=C(COC3=O)Nc3cc4c(cc32)OCO4)cc(OC)c1OC (stereo not shown) [Compound 15e, 6,7-Methylenedioxy-9-(3,4,5-trimethoxyphenyl)-4,9-dihydro-3H-furo[3,4-b]quinolin-1-one]",273 to 275 °C,0.0018,–,–,–,–,–,–,–,–,–,–,–,–,–,–
"COc1cc(C2C3=C(COC3=O)N(CCc3ccc(Cl)cc3)c3cc4c(cc32)OCO4)cc(OC)c1OC (stereo not shown) [Compound 26, 6,7-Methylenedioxy-4-[2-(4-chlorophenyl)-ethyl]-9-(3,4,5-trimethoxyphenyl)-4,9-dihydro-3H-furo[3,4-b]quinolin-1-one]",170 to 173 °C,–,0.3,0.54,0.37,0.34,0.35,0.31,2.6,–,–,–,–,–,–,–
"COc1cc(C2C3=C(COC3=O)N(CCN3CCCCC3)c3cc4c(cc32)OCO4)cc(OC)c1OC (stereo not shown) [Compound 21, 6,7-Methylenedioxy-4-(2-piperidin-1-yl-ethyl)-9-(3,4,5-trimethoxyphenyl)-4,9-dihydro-3H-furo[3,4-b]quinolin-1-one]",170 °C (dec.),–,–,–,–,–,–,–,–,> 10,4.4,> 10,> 10,> 10,> 10,1.7
"COc1cc(C2C3=C(COC3=O)N(C3CCCC3)c3cc4c(cc32)OCO4)cc(OC)c1OC (stereo not shown) [Compound 18, 6,7-Methylenedioxy-4-(cyclopentyl)-9-(3,4,5-trimethoxyphenyl)-4,9-dihydro-3H-furo[3,4-b]quinolin-1-one]",221 to 223 °C,–,0.16,0.083,0.12,0.045,0.062,0.27,15.3,–,–,–,–,–,–,–
"COc1cc(C2C3=C(COC3=O)N(CCc3ccc([N+](=O)[O-])cc3)c3cc4c(cc32)OCO4)cc(OC)c1OC (stereo not shown) [Compound 27, 6,7-Methylenedioxy-4-[2-(4-nitrophenyl)-ethyl]-9-(3,4,5-trimethoxyphenyl)-4,9-dihydro-3H-furo[3,4-b]quinolin-1-one]",188 to 190 °C,–,0.3,0.39,0.26,0.08,0.2,0.3,34.8,–,–,–,–,–,–,–
